Results: patent US11124499B2, “Pharmaceutical composition derived from Tecoma plant and a method for treating cancer” (National Guard Health Affairs, priority 2018, dated 2021)

How the values were obtained:
[1] = system: MV4-11; test: MTT cytotoxicity, MV4-11; assay type: cell-based; settings: MV4-11, human B myelomonocytic leukemia, 12 h exposure, mean±SD of three trials
Description: (§1) The cytotoxicity of Tecomaphorbide was tested against various cultured cell lines. Cells were exposed to various concentrations of Tecomaphorbide (ranging from 0.0 to 4.0 μM) for 12 h. Subsequently, the exposed cells were incubated with MTT reagent for 4 h and the developed color was analyzed spectrophotometrically. IC50 was determined from the sigmoidal curve of blotting percentage of cell viability versus the logarithm of concentration in μM using Graphpad Prism 6 program. The determined values summarized in Table 2 are the mean±SD value obtained from three independent trials.

[2] = system: HL-60; test: MTT cytotoxicity, HL-60; assay type: cell-based; settings: HL-60, human acute promyelocytic leukemia, 12 h exposure, mean±SD of three trials
Description: as §1

[3] = system: U937; test: MTT cytotoxicity, U937; assay type: cell-based; settings: U-937, U937, human histiocytic lymphoma, 12 h exposure, mean±SD of three trials
Description: as §1

[4] = system: MOLM-13; test: MTT cytotoxicity, MOLM-13; assay type: cell-based; settings: MOLM-13, human acute monocytic leukemia, 12 h exposure, mean±SD of three trials
Description: as §1

[5] = system: Caco-2; test: MTT cytotoxicity, Caco-2; assay type: cell-based; settings: Caco-2, human colorectal adenocarcinoma, 12 h exposure, mean±SD of three trials
Description: as §1

[6] = system: K562; test: MTT cytotoxicity, K562; assay type: cell-based; settings: K562, human chronic myelogenous leukemia, 12 h exposure, mean±SD of three trials
Description: as §1

[7] = system: T-Cell Acute lymphocytic leukemia cell line (Jurkat); test: Apoptosis in Jurkat cells (FIG. 2); assay type: cell-based, human
Description: (§2) FIG. 2 is a bar graph summarizing the effect of compound Tecomaphorbide on apoptosis in human acute leukemia T-cells (Jurkat cells) and normal primary T-cells.

[8] = system: normal primary T-cells; test: Apoptosis in normal primary T-cells (FIG. 2); assay type: cell-based, human
Description: as §2

[9] = system: MCF-7; test: MTT cytotoxicity, MCF-7; assay type: cell-based; settings: MCF7, MCF-7, human breast adenocarcinoma, 12 h exposure, mean±SD of three trials
Description: as §1

[10] = system: PC-3; test: MTT cytotoxicity, PC-3; assay type: cell-based; settings: PC-3, human prostate adenocarcinoma, 12 h exposure, mean±SD of three trials
Description: as §1

[11] = system: Jurkat; test: MTT cytotoxicity, Jurkat; assay type: cell-based; settings: human acute T cell leukemia, 12 h exposure, mean±SD of three trials
Description: as §1

SMILES: C=Cc1c(C=O)c2cc3nc(c4c5[nH]c(cc6nc(cc1[nH]2)C(C)=C6CC)c(C)c5C(=O)C4C(=O)OCC)C(CCC(=O)OC)C3C (centres unmarked) [Tecomaphorbide]
- IC50 [1]: 620 ± 140 nM
- IC50 [2]: 460 ± 110 nM
- IC50 [3]: 1380 ± 320 nM
- IC50 [4]: 580 ± 170 nM
- IC50 [5]: 2830 ± 620 nM
- IC50 [6]: 1530 ± 190 nM
- effect on apoptosis [7]: able to induce apoptosis
- effect on apoptosis [8]: minimal impact
- IC50 [9]: 2660 ± 480 nM
- IC50 [10]: 1940 ± 350 nM
- IC50 [11]: 1210 ± 240 nM
